# According to patent US20060281719A1, “Oestrogen-17-sulphamates as inhibitors of steroid sulphatase” (priority 2000, published 2006):
# Where “and” joins values, the source holds several entries; their conditions need not be identical. Equal values may be shown once.
# Key:
# [1] = target: T1, oestrone sulphatase (E1-STS) (Homo sapiens, UniProt P08842); test: Inhibition of steroid sulphatase (E1-STS) activity in intact MCF-7 breast cancer cells; type: cell-based
# T1 sequence (P08842 22-583): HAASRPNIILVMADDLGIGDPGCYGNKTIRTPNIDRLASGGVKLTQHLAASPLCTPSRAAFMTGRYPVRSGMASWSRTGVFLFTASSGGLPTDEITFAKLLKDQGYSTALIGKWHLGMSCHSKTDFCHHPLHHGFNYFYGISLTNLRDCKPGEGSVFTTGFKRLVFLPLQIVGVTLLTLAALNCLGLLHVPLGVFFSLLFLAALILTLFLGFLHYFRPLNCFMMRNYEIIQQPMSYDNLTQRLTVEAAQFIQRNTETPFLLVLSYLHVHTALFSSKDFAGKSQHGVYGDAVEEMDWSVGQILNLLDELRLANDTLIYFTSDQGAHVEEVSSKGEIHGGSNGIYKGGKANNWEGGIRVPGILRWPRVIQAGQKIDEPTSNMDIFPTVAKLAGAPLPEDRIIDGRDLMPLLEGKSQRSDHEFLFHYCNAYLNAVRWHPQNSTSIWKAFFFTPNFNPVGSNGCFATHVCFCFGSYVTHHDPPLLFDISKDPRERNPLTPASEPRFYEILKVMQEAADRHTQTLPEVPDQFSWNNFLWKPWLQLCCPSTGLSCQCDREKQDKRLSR
# [2] = target: T1, oestrone sulphatase (E1-STS); test: Inhibition of steroid sulphatase activity in placental microsomes; type: biochemical; design: from tissue; host or cells: human term placenta (microsomal preparation)
SMILES,% Inhibition of E1-STS activity in MCF-7 cells ([1]; 0.1 μM) [%],% Inhibition of E1-STS activity in MCF-7 cells ([1]; 1 μM) [%],% Inhibition of E1-STS activity in MCF-7 cells ([1]; 10 μM) [%],% Inhibition of E1-STS activity in placental microsomes ([2]; 10 μM),% Inhibition of E1-STS activity in placental microsomes ([2]; 25 µM) [%],% Inhibition of E1-STS activity in placental microsomes ([2]; 50 µM) [%],% Inhibition of E1-STS activity in placental microsomes ([2]; 100 µM) [%]
"NS(=O)(=O)Oc1ccc2c(c1)C(=O)c1ccc(O)cc1C2=O [Compound 11, 2-hydroxyanthraquinone-6-O-sulphamate]",99.3 ± 0.6,94.5 ± 1.6,90.1 ± 0.8,86% and 86.1 ± 0.5%,91.2 ± 0.2,94.4 ± 0.5,95.6 ± 0.1
"NS(=O)(=O)Oc1ccc(C(=O)c2ccccc2)cc1 [Compound 6, Benzophenone-4-O-sulphamate]",<10,33.04 ± 10.68,87.89 ± 2.02,76.73 ± 2.47%,–,88.04 ± 0.82,92.28 ± 0.41
"NS(=O)(=O)Oc1ccc(C(=O)C=Cc2ccccc2)cc1 [Compound 8, Chalcone-4′-O-sulphamate]",<10,33.04 ± 10.68,87.89 ± 2.02,71.27 ± 2.42%,–,75.79 ± 2.06,80.51 ± 1.87

# Continued, values first:
% Inhibition of E1-STS activity in MCF-7 cells ([1]; 0.1 μM) [%],% Inhibition of E1-STS activity in MCF-7 cells ([1]; 1 μM) [%],% Inhibition of E1-STS activity in MCF-7 cells ([1]; 10 μM) [%],% Inhibition of E1-STS activity in placental microsomes ([2]; 10 μM),% Inhibition of E1-STS activity in placental microsomes ([2]; 25 µM) [%],% Inhibition of E1-STS activity in placental microsomes ([2]; 50 µM) [%],% Inhibition of E1-STS activity in placental microsomes ([2]; 100 µM) [%],SMILES
26.6 ± 4.3,83.9 ± 1.2,97.7 ± 0.4,33.1 ± 1.7%,49.5 ± 0.1,64.7 ± 0.9,76.8 ± 0.4,"NS(=O)(=O)Oc1ccc(Sc2ccc(O)cc2)cc1 [Compound 16, 4′-hydroxy-thiodiphenyl-4-O-sulphamate]"
67.2 ± 1.1,96.6 ± 1.4,99.7 ± 0.1,65.3 ± 0.9%,79.4 ± 0.9,87.4 ± 0.9,91.9 ± 0.4,"NS(=O)(=O)Oc1ccc(Sc2ccc(OS(N)(=O)=O)cc2)cc1 [Compound 15, Thiodiphenyl-4,4′O,O-bis-sulphamate]"
16.1 ± 4.0,32.7 ± 2.3,90.1 ± 0.7,31.4 ± 1.6%,41.9 ± 2.3,62.5 ± 7.5,69.0 ± 4.8,"NS(=O)(=O)Oc1ccc(C23CC4CC(C2)CC(c2ccc(OS(N)(=O)=O)cc2)(C4)C3)cc1 [Compound 20, (1,3-Adamantanediyl)diphenyl-4,4′-O,O-bis-sulphamate]"
<10,39.3 ± 0.1,92.4 ± 0.1,11.7 ± 2.3%,17.3 ± 2.7,22.8 ± 1.4,34.3 ± 1.0,"NS(=O)(=O)Oc1ccc(Cc2ccc(O)cc2)cc1 [Compound 19, 4-sulphamoyloxy-4′ hydroxydiphenylmethane]"
–,–,–,<10%,20.0 ± 1.6,33.4 ± 2.2,44.7 ± 0.4,"Oc1ccc(C(O)(c2ccc(O)cc2)C2CCCCC2)cc1 [Compound 24, 1-Cyclohexyl-1,1-di-(4-hydroxyphenyl)methanol]"
